Data: ChEMBL document CHEMBL1681655, “Identification of a new series of non-peptidic NK3 receptor antagonists” (Bioorg Med Chem Lett, 2011)

How the values were obtained:
Neuromedin-K receptor = molecular target: T1, Neuromedin-K receptor (Homo sapiens, UniProt P29371); experiment: Displacement of [3H]Lu AE93103 from human NK3 receptor expressed in BHK cells; format: cell-based
T1 sequence (P29371 whole entry): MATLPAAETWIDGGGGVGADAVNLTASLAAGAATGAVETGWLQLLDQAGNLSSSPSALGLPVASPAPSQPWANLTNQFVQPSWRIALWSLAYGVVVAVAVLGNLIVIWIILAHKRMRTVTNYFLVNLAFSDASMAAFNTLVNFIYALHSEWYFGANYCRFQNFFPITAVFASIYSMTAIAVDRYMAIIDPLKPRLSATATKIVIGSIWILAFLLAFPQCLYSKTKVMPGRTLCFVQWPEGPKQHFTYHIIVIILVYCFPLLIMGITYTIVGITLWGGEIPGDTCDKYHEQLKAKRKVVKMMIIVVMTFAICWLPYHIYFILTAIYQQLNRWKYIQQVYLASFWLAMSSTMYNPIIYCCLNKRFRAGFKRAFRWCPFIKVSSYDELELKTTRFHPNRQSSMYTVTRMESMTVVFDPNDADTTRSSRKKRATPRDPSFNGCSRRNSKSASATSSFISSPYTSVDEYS

[1] = Apparent permeability of the compound in human Caco2 cells; format: ADME, cell-based; details: caco-2
Liver microsomes = experiment: Intrinsic clearance in human liver microsomes; format: ADME, Microsome
Caco-2 = experiment: Efflux ratio of permeability from […] in human Caco2 cells; format: ADME, cell-based

Ki (Neuromedin-K receptor) [nM]	Papp [1] [×10⁻⁶ cm/s]	CL (Liver microsomes) [L/min]	Ratio (Caco-2)	SMILES
83	–	–	–	CC(=O)NC1(c2ccccc2)CCN(C[C@H]2C[C@]2(C(=O)N(C)Cc2ccccc2)c2ccc(Cl)c(Cl)c2)CC1
5.8	–	–	–	CC(=O)NC1(c2ccccc2)CCN(C[C@@H]2C[C@@]2(C(=O)N(C)Cc2ccc(F)cc2)c2ccc(Cl)c(Cl)c2)CC1
67	–	–	–	CC(=O)NC1(c2ccccc2)CCN(C[C@@H]2C[C@@]2(C(=O)N(C)Cc2ccc(F)cc2)c2ccc(F)cc2)CC1
36	–	–	–	CC(=O)NC1(c2ccccc2)CCN(C[C@@H]2C[C@@]2(C(=O)N(C)Cc2ccc(F)cc2)c2ccc(Cl)cc2)CC1
37	–	–	–	CC(=O)NC1(c2ccccc2)CCN(C[C@@H]2C[C@@]2(C(=O)N(C)Cc2ccc(F)cc2)c2ccc(C)cc2)CC1
350	–	–	–	COc1ccc([C@]2(C(=O)N(C)Cc3ccc(F)cc3)C[C@H]2CN2CCC(NC(C)=O)(c3ccccc3)CC2)cc1
1000	–	–	–	CC(=O)NC1(c2ccccc2)CCN(C[C@@H]2C[C@@]2(C(=O)N(C)Cc2ccc(F)cc2)c2ccc(C(F)(F)F)cc2)CC1
270	–	–	–	CC(=O)NC1(c2ccccc2)CCN(C[C@@H]2C[C@@]2(C(=O)N(C)Cc2ccc(F)cc2)c2ccc(C#N)cc2)CC1
140	–	–	–	CC(=O)NC1(c2ccccc2)CCN(C[C@@H]2C[C@@]2(C(=O)N(C)Cc2ccc(F)cc2)c2cccc(F)c2)CC1
32	–	–	–	CC(=O)NC1(c2ccccc2)CCN(C[C@@H]2C[C@@]2(C(=O)N(C)Cc2ccc(F)cc2)c2cccc(Cl)c2)CC1
40	–	–	–	CC(=O)NC1(c2ccccc2)CCN(C[C@@H]2C[C@@]2(C(=O)N(C)Cc2ccc(F)cc2)c2cccc(C)c2)CC1
56	–	–	–	COc1cccc([C@]2(C(=O)N(C)Cc3ccc(F)cc3)C[C@H]2CN2CCC(NC(C)=O)(c3ccccc3)CC2)c1
210	–	–	–	CC(=O)NC1(c2ccccc2)CCN(C[C@@H]2C[C@@]2(C(=O)N(C)Cc2ccc(F)cc2)c2cccc(C(F)(F)F)c2)CC1
1900	–	–	–	CC(=O)NC1(c2ccccc2)CCN(C[C@@H]2C[C@@]2(C(=O)N(C)Cc2ccc(F)cc2)c2cccc(C#N)c2)CC1
47	–	–	–	CC(=O)NC1(c2ccccc2)CCN(C[C@@H]2C[C@@]2(C(=O)N(C)Cc2ccc(F)cc2)c2ccc(F)c(F)c2)CC1
90	–	–	–	CC(=O)NC1(c2ccccc2)CCN(C[C@@H]2C[C@@]2(C(=O)N(C)Cc2ccc(F)cc2)c2cc(Cl)cc(Cl)c2)CC1
7.3	–	–	–	CC(=O)NC1(c2ccccc2)CCN(C[C@@H]2C[C@@]2(C(=O)N(C)Cc2ccc(F)cc2)c2ccc(C)c(C)c2)CC1
140	–	–	–	CC(=O)NC1(c2ccccc2)CCN(C[C@@H]2C[C@@]2(C(=O)N(C)Cc2ccc(F)cc2)c2ccc3c(c2)OCO3)CC1
93	–	–	–	CC(=O)NC1(c2ccccc2)CCN(C[C@@H]2C[C@]2(C(=O)N(C)Cc2ccc(F)cc2)c2cccs2)CC1

Ki (Neuromedin-K receptor) [nM]	Papp [1] [×10⁻⁶ cm/s]	CL (Liver microsomes) [L/min]	Ratio (Caco-2)	SMILES
110	–	–	–	CC(=O)NC1(c2ccccc2)CCN(C[C@@H]2C[C@@]2(C(=O)N(C)Cc2ccc(F)cc2)c2ccsc2)CC1
4.2	0.8	19	12	CC(=O)N(C)C1(c2ccccc2)CCN(C[C@@H]2C[C@@]2(C(=O)N(C)Cc2ccccc2)c2ccc(Cl)c(Cl)c2)CC1
1.5	0.4	6.3	> 100	COC(=O)NC1(c2ccccc2)CCN(C[C@@H]2C[C@@]2(C(=O)N(C)Cc2ccccc2)c2ccc(Cl)c(Cl)c2)CC1
2.8	–	> 20	–	CN(C)C(=O)NC1(c2ccccc2)CCN(C[C@@H]2C[C@@]2(C(=O)N(C)Cc2ccccc2)c2ccc(Cl)c(Cl)c2)CC1
5.6	0.6	6.8	42	CNC(=O)NC1(c2ccccc2)CCN(C[C@@H]2C[C@@]2(C(=O)N(C)Cc2ccccc2)c2ccc(Cl)c(Cl)c2)CC1
12	0.6	2	85	CN(Cc1ccccc1)C(=O)[C@@]1(c2ccc(Cl)c(Cl)c2)C[C@H]1CN1CCC(NC(N)=O)(c2ccccc2)CC1
3.6	1.3	6.9	13	CN(Cc1ccccc1)C(=O)[C@@]1(c2ccc(Cl)c(Cl)c2)C[C@H]1CN1CCC(c2ccccc2)(N(C)C(=O)C(N)=O)CC1
7.8	0.1	15	120	CN(Cc1ccccc1)C(=O)[C@@]1(c2ccc(Cl)c(Cl)c2)C[C@H]1CN1CCC(NS(C)(=O)=O)(c2ccccc2)CC1
3.3	35	16	1.5	CN(Cc1ccc(F)cc1)C(=O)[C@@]1(c2ccc(Cl)c(Cl)c2)C[C@H]1CN1CCN(C(=O)CN2CCOCC2)CC1
3.7	–	4.3	–	CN(Cc1ccc(F)cc1)C(=O)[C@@]1(c2ccc(Cl)c(Cl)c2)C[C@H]1CN1CCN(CCN2CCOCC2)CC1
1.8	27	12	1.3	CN(Cc1ccc(F)cc1)C(=O)[C@@]1(c2ccc(Cl)c(Cl)c2)C[C@H]1CN1CCN(CC(=O)N2CCCC2)CC1
17	28	8.5	1.1	CN(C)C(=O)CCN1CCN(C[C@@H]2C[C@@]2(C(=O)N(C)Cc2ccc(F)cc2)c2ccc(Cl)c(Cl)c2)CC1
7.3	2.9	10	4.2	CN(Cc1ccc(F)cc1)C(=O)[C@@]1(c2ccc(Cl)c(Cl)c2)C[C@H]1CN1CCN(C(=O)CN2CCCCC2)CC1
5.8	–	> 20	–	CN(Cc1ccc(F)cc1)C(=O)[C@@]1(c2ccc(Cl)c(Cl)c2)C[C@H]1CN1CCN(S(=O)(=O)N2CCCC2)CC1
8.7	–	15	–	CN(Cc1ccc(F)cc1)C(=O)[C@@]1(c2ccc(Cl)c(Cl)c2)C[C@H]1CN1CCN(C(=O)CN2CCCCCC2)CC1
1.9	–	12	–	CN(Cc1ccc(F)cc1)C(=O)[C@@]1(c2ccc(Cl)c(Cl)c2)C[C@H]1CN1CC(N2CCN(S(=O)(=O)N(C)C)CC2)C1
7.5	–	–	–	CC(=O)NC1(c2ccccc2)CCN(CC2CC2(C(=O)N(C)Cc2ccc(C)cc2)c2ccc(Cl)c(Cl)c2)CC1 (racemic)
20	–	–	–	CC(=O)NC1(c2ccccc2)CCN(CC2CC2(C(=O)N(C)Cc2ccccc2Cl)c2ccc(Cl)c(Cl)c2)CC1 (racemic)
18	–	–	–	CC(=O)NC1(c2ccccc2)CCN(CC2CC2(C(=O)N(C)Cc2ccccc2F)c2ccc(Cl)c(Cl)c2)CC1 (racemic)

Ki (Neuromedin-K receptor) [nM]	Papp [1] [×10⁻⁶ cm/s]	CL (Liver microsomes) [L/min]	Ratio (Caco-2)	SMILES
5.3	–	–	–	CC(=O)NC1(c2ccccc2)CCN(CC2CC2(C(=O)N(C)Cc2ccccc2C)c2ccc(Cl)c(Cl)c2)CC1 (racemic)
14	–	–	–	COc1ccccc1CN(C)C(=O)C1(c2ccc(Cl)c(Cl)c2)CC1CN1CCC(NC(C)=O)(c2ccccc2)CC1 (racemic)
12	–	–	–	CC(=O)NC1(c2ccccc2)CCN(CC2CC2(C(=O)N(C)Cc2cccc(F)c2)c2ccc(Cl)c(Cl)c2)CC1 (racemic)
24	–	–	–	CC(=O)NC1(c2ccccc2)CCN(CC2CC2(C(=O)N(C)Cc2cccc(Cl)c2)c2ccc(Cl)c(Cl)c2)CC1 (racemic)
33	–	–	–	COc1cccc(CN(C)C(=O)C2(c3ccc(Cl)c(Cl)c3)CC2CN2CCC(NC(C)=O)(c3ccccc3)CC2)c1 (racemic)
50	–	–	–	CC(=O)NC1(c2ccccc2)CCN(CC2CC2(C(=O)N(C)Cc2cccc(C(F)(F)F)c2)c2ccc(Cl)c(Cl)c2)CC1 (racemic)
11	–	–	–	CC(=O)NC1(c2ccccc2)CCN(CC2CC2(C(=O)N(C)Cc2ccc(Cl)cc2)c2ccc(Cl)c(Cl)c2)CC1 (racemic)
15	–	–	–	COc1ccc(CN(C)C(=O)C2(c3ccc(Cl)c(Cl)c3)CC2CN2CCC(NC(C)=O)(c3ccccc3)CC2)cc1 (racemic)
4.6	–	–	–	CC(=O)NC1(c2ccccc2)CCN(CC2CC2(C(=O)N(C)Cc2ccc(C(F)(F)F)cc2)c2ccc(Cl)c(Cl)c2)CC1 (racemic)
28	–	–	–	CSc1ccc(CN(C)C(=O)C2(c3ccc(Cl)c(Cl)c3)CC2CN2CCC(NC(C)=O)(c3ccccc3)CC2)cc1 (racemic)
24	–	–	–	CC(=O)NC1(c2ccccc2)CCN(CC2CC2(C(=O)N(C)Cc2cccc(Cl)c2Cl)c2ccc(Cl)c(Cl)c2)CC1 (racemic)
16	–	–	–	CC(=O)NC1(c2ccccc2)CCN(CC2CC2(C(=O)N(C)Cc2ccc(Cl)cc2Cl)c2ccc(Cl)c(Cl)c2)CC1 (racemic)
13	–	–	–	CC(=O)NC1(c2ccccc2)CCN(CC2CC2(C(=O)N(C)Cc2ccc(Cl)c(Cl)c2)c2ccc(Cl)c(Cl)c2)CC1 (racemic)
23	–	–	–	CC(=O)NC1(c2ccccc2)CCN(CC2CC2(C(=O)N(C)Cc2cc(Cl)cc(Cl)c2)c2ccc(Cl)c(Cl)c2)CC1 (racemic)
5.9	–	–	–	COc1ccc(CN(C)C(=O)C2(c3ccc(Cl)c(Cl)c3)CC2CN2CCC(NC(C)=O)(c3ccccc3)CC2)c(OC)c1 (racemic)
67	–	–	–	COc1ccc(CN(C)C(=O)C2(c3ccc(Cl)c(Cl)c3)CC2CN2CCC(NC(C)=O)(c3ccccc3)CC2)cc1OC (racemic)
32	–	–	–	COc1cc(CN(C)C(=O)C2(c3ccc(Cl)c(Cl)c3)CC2CN2CCC(NC(C)=O)(c3ccccc3)CC2)cc(OC)c1 (racemic)
70	–	–	–	CC(=O)NC1(c2ccccc2)CCN(CC2CC2(C(=O)N(C)Cc2cccs2)c2ccc(Cl)c(Cl)c2)CC1 (racemic)
14	–	–	–	CC(=O)NC1(c2ccccc2)CCN(CC2CC2(C(=O)N(C)Cc2ccsc2)c2ccc(Cl)c(Cl)c2)CC1 (racemic)

SMILES	Ki (Neuromedin-K receptor) [nM]	Papp [1] [×10⁻⁶ cm/s]	CL (Liver microsomes) [L/min]	Ratio (Caco-2)
CN(Cc1ccccc1)C(=O)[C@@]1(c2ccc(Cl)c(Cl)c2)C[C@H]1CN1CCC(C(=O)N2CCCCC2)(c2ccccc2)CC1	6.1	0.3	> 20	17
